Patent US20040067547A1, “Rapid method for detecting micro-organisms and evaluating antimicrobial activity” (priority 1998, published 2004)

System: Streptococcus pneumoniae
Assay: Antibiotic sensitivity testing by zeta potential measurement (ZETASIZER 2000)
Type: cell-based
Settings: about 10^5 cells in growth medium with penicillin at 0.01 g/ml, incubated at 37° C. for 3 h; about 0 mV = dead cells, untreated −27.9 mV
Procedure: The following Example illustrates a particular embodiment of the invention: Streptococcus pneumoniae was grown for about 4 h in laked horse blood medium. Aliqouts, representing about 10^5 cells, were transferred to two tubes containing growth medium: one of these also contained penicillin at 0.01 g/ml. The zeta potential of both samples was measured using a ZETASIZER 2000 (RTM) from Malvern Instruments. The tubes were incubated at 37° C. for 3 h, and the zeta potential of each measured again. […] There is a clear difference in these profiles. In both Figures, the peak at 0 mV represents dead cells. The zeta potential of all dead micro-organisms is close to 0 mV: without wishing to be bound by a particular theory, it is believed that these changes are brought about by the vacuolation of the cells, resulting in the zeta potential decaying to about 0 mv. The other peak in FIG. 4 is believed also to be cells of S pneumoniae, but which are […].

**Q.** Which “Mean Zeta Potential for S pneumoniae” value does the source give for penicillin here?
**A.** −0.3 mV
